SMILES strings stand for the structures.

The target in experiment [1] is T1, ForI (Streptomyces kaniharaensis, UniProt A0A5S8ZI02).
T1 construct: gene cof17; homodimer, active site from both monomers; residues 3 to 417 located in crystal
T1 sequence (A0A5S8ZI02 1-423): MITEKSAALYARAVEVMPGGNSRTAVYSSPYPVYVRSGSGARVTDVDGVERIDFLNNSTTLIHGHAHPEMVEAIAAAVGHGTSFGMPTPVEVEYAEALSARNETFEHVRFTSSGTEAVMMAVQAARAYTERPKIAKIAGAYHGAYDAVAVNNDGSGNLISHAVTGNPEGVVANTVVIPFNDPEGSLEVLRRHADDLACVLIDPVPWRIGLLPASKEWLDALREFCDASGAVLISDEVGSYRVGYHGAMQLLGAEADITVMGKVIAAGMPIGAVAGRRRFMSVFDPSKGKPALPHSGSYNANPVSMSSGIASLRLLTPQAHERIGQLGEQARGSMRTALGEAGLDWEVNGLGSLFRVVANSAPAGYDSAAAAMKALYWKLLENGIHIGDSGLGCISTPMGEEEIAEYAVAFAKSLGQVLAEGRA
The experiment can be described thus: X-ray crystal structure, […] Å; mass spectrometry. To be noted: pH 8. The experiment is classed as binding.

In experiment [2] the target is T1, ForI. The experiment can be described thus: UV-vis spectrum of PLP cofactor; PMP form seen in crystal. It counts as biochemical. To be noted: amino donor half-reaction; L-Glu itself not seen in density.
Experiment [3] addresses T1, ForI. In words: X-ray crystal structure, […] Å. The experiment is classed as binding. To be noted: crystals incubated with L-Glu for 20 min; non-covalent.
Experiment [4] deals with T1, ForI. In words: UV-vis, mass spectrometry and crystal structure of the adduct. To be noted: covalent; reacts at PLP, bound species is the PMP-diketopiperazine adduct; 10 mM, pH 8, 4 °C. It counts as binding.

On to `Cc1ncc(COP(=O)(O)O)c(/C=N/OC[C@H]2NC(=O)[C@@H](CON)NC2=O)c1O` [PMP–diketopiperazine from D-cycloserine], for which the “X-ray crystal structure, 1.5 Å; mass spectrometry” value at ForI [1] (covalent adduct of PLP cofactor formed on incubation with 10 mM D-cycloserine) is reported as “identified the formation of external aldimine PLP–diketopiperazine adducts”.
On to `N[C@@H](CCC(=O)O)C(=O)O` [L-Glu], for which the “UV-vis spectrum of PLP cofactor; PMP form seen in crystal” value on ForI [2] is given as “Incubating ForI with L-Glu shows a rapid change in the UV-vis spectrum”.
`Cc1ncc(COP(=O)(O)O)c(CN)c1O` [PMP]: the “X-ray crystal structure, 1.56 Å” value at ForI [3] was “the pyridoxal co-factor is unattached to the enzyme, suggesting it to be PMP”.
For the compound `N[C@@H]1CONC1=O` [D-cycloserine], the “UV-vis, mass spectrometry and crystal structure of the adduct” value at ForI [4] is on record as “Incubation of ForI with either D- or L-cycloserine immediately shows changes in the UV-vis spectrum”.
Regarding `Cc1ncc(COP(=O)(O)O)c(/C=N/OC[C@@H]2NC(=O)[C@H](CON)NC2=O)c1O` [PMP–diketopiperazine from L-cycloserine], the “X-ray crystal structure, 1.5 Å; mass spectrometry” value on ForI [1] (covalent adduct of PLP cofactor formed on incubation with 10 mM L-cycloserine) is listed as “identified the formation of external aldimine PLP–diketopiperazine adducts”.
Turning to `N[C@H]1CONC1=O` [L-cycloserine], the “UV-vis, mass spectrometry and crystal structure of the adduct” value on ForI [4] is given as “Incubation of ForI with either D- or L-cycloserine immediately shows changes in the UV-vis spectrum”.

The values above are taken from PMC6927412, “PMP–diketopiperazine adducts form at the active site of a PLP dependent enzyme involved in formycin biosynthesis” (Chemical Communications (Cambridge, England), 2019).
